pIC50: −log10 of the molar value. Structures can show the parent of a compound that is named as a salt.
How the values were obtained:
[1] = Pharmacokinetic parameters in rats after oral administration of the succinate prodrug (Example 7); type: in vivo; settings: male, Crl:WI(GLx/BRL/Han)IGS BR (Hanover-Wistar), rat plasma; for Cmax: succinate prodrug given orally (gavage, aqueous suspension); for AUC: succinate prodrug given orally
Experimental: Male Crl:WI(GLx/BRL/Han)IGS BR (Hanover-Wistar) rats weighing 240-260 g were cannulated. Groups of three rats were used for each dose level of an experimental compound. The test substance succinic acid mono-[3-(2-chloro-phenyl)-6-(2,4-difluoro-phenoxy)-4-(2-hydroxy-2-methyl-propylamino)-pyrazolo[3,4-d]pyrimidin-1-ylmethyl]ester was formulated as an aqueous suspension, and a dose of 3 or 10 mg/kg (in 1-[3-(2-Chloro-phenyl)-6-(2,4-difluoro-phenoxy)-1H-pyrazolo[3,4-d]pyrimidin-4-ylamino]-2-methyl-propan-2-ol equivalent) was administered orally through gavage. A blood sample (0.3 mL) was collected from the each treated rat at 0 (predose), 0.083, 0.25, 1, 2, 4, 6, and 8 h after dose via the jugular cannula. At 24 h after dosing, blood was collected from each treated rat via cardiac puncture. Lithium heparin was added to the samples which were stored on ice during sampling procedure. The samples were spun in a refrigerated centrifuge at 4° C. as soon as possible and the plasma samples were stored −20° C. immediately after centrifugation and until analysis. The concentration of test compound was determined by HPLC-MS/MS.

[2] = Pharmacokinetic parameters in rats after oral administration of the phosphate prodrug (Example 6); type: in vivo; settings: for Cmax / AUC: male, Crl:WI(GLx/BRL/Han)IGS BR (Hanover-Wistar), po, rat plasma; for Cmax: phosphate prodrug given orally (gavage, aqueous suspension)
Description: Male Crl:WI(GLx/BRL/Han)IGS BR (Hanover-Wistar) rats weighing 240-260 g were cannulated. Groups of three rats were used for each dose level of an experimental compound. One additional non-cannulated animal was included as vehicle control. Animals were allowed normal access to food and water throughout the experiment. The test substance phosphoric acid mono-{2-[3-(2-chloro-phenyl)-6-(2,4-difluoro-phenoxy)-1H-pyrazolo[3,4-d]pyrimidin-4-ylamino]-1-methyl-ethyl}ester was formulated as an aqueous suspension and a dose of 3 or 30 mg/kg (in 1-[3-(2-chloro-phenyl)-6-(2,4-difluoro-phenoxy)-1H-pyrazolo[3,4-d]pyrimidin-4-ylamino]-propan-2-ol equivalent) was administered orally through gavage. A blood sample (0.3 mL) was collected from the each treated rat at 0 (predose), 0.083, 0.25, 1, 2, 4, 6, and 8 hr after dose via the jugular cannula. At 24 hr after dosing, blood was collected from each treated rat via cardiac puncture. Blood was also collected from the untreated animal at 24 hr via cardiac puncture. Lithium heparin was added to the samples which were stored on ice during sampling procedure. The samples were spun in a refrigerated centrifuge at 4° C. as soon as possible and the plasma samples were stored −20° C. immediately after centrifugation and until analysis. The concentration of test compound was determined by HPLC-MS/MS. […] The prodrug phosphoric acid mono-{2-[3-(2-chloro-phenyl)-6-(2,4-difluoro-phenoxy)-1H-pyrazolo[3,4-d]pyrimidin-4-ylamino]-1-methyl-ethyl}ester was not detected in the rat plasma (at quantification limit of 0.0005 μg/mL) with the 3-mg/kg dose.

p38 MAP kinase = target: T1, p38 MAP kinase (Homo sapiens, UniProt Q16539); experiment: p38 (MAP) kinase in vitro assay, transfer of γ-33P from ATP to Myelin Basic Protein; type: biochemical; settings: phosphorylated recombinant p38 MAP kinase, MBP substrate
T1 construct: made in house; host or cells: E. coli (co-expressed with SEK-1 and MEKK)
T1 sequence (Q16539 whole entry): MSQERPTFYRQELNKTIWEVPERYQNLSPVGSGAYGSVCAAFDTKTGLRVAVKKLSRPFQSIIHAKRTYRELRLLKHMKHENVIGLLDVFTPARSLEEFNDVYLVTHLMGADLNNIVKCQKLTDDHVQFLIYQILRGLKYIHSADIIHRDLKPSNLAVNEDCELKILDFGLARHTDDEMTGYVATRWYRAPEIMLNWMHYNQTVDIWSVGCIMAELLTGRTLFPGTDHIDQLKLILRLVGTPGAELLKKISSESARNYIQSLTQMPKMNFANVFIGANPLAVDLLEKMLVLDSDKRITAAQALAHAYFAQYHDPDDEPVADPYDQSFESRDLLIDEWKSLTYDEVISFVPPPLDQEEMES
Experimental: The p38 MAP kinase inhibitory activity of compounds of this invention in vitro was determined by measuring the transfer of the γ-phosphate from γ-^33P-ATP by p-38 kinase to Myelin Basic Protein (MBP), using a minor modification of the method described in Ahn, et al., J. Biol. Chem. 266:4220-4227 (1991).
The phosphorylated form of the recombinant p38 MAP kinase was co-expressed with SEK-1 and MEKK in E. Coli (see, Khokhlatchev, et al., J. Biol. Chem. 272:11057-11062 (1997)) and then purified by affinity chromatography using a Nickel column.
The phosphorylated p38 MAP kinase was diluted in kinase buffer (20 mM 3-(N-morpholino)propanesulfonic acid, pH 7.2, 25 mM β-glycerol phosphate, 5 mM ethylene glycol-bis(beta-aminoethyl ether)-N,N,N′,N′-tetraacetic acid, 1 mM sodium ortho-vanadate, 1 mM dithiothreitol, 40 mM magnesium chloride). Test compound dissolved in DMSO or only DMSO (control) was added and the samples were incubated for 10 min at 30° C. The kinase reaction was initiated by the addition of a substrate cocktail containing MBP and γ-^33P-ATP. After incubating for an additional 20 min at 30° C., the reaction was terminated by adding 0.75% phosphoric acid. The phosphorylated MBP was then separated from the residual γ-^33P-ATP using a phosphocellulose membrane (Millipore, Bedfrod, Mass.) and quantitated using a scintillation counter (Packard, Meriden, Conn.).

[3] = phosphate prodrug given orally, 30 mg/kg in parent equivalent

SMILES: C[C@@H](CNc1nc(Oc2ccc(F)cc2F)nc2[nH]nc(-c3ccccc3Cl)c12)OP(=O)(O)O (as salt: sodium) [phosphoric acid mono-{2-[3-(2-chloro-phenyl)-6-(2,4-difluoro-phenoxy)-1H-pyrazolo[3,4-d]pyrimidin-4-ylamino]-1-methyl-ethyl}ester]
- melting point: > 300 °C

SMILES: CC(C)(O)CNc1nc(Oc2ccc(F)cc2F)nc2[nH]nc(-c3ccccc3Cl)c12 [1-[3-(2-Chloro-phenyl)-6-(2,4-difluoro-phenoxy)-1H-pyrazolo[3,4-d]pyrimidin-4-ylamino]-2-methyl-propan-2-ol]
- Cmax ([1]; 3 mg/kg in parent equivalent): 1340 ng/mL
- Cmax ([1]; 10 mg/kg in parent equivalent): 7050 ng/mL
- AUC ([1]; 3 mg/kg in parent equivalent): 9270 ng·h/mL
- AUC ([1]; 10 mg/kg in parent equivalent): 47400 ng·h/mL

SMILES: C[C@H](O)CNc1nc(Oc2ccc(F)cc2F)nc2[nH]nc(-c3ccccc3Cl)c12 [1-[3-(2-chloro-phenyl)-6-(2,4-difluoro-phenoxy)-1H-pyrazolo[3,4-d]pyrimidin-4-ylamino]-propan-2-ol]
- Cmax ([2]; 3 mg/kg in parent equivalent): 1330 ng/mL
- Cmax ([2]; 30 mg/kg in parent equivalent): 9800 ng/mL
- AUC ([2]; phosphate prodrug given orally, 3 mg/kg in parent equivalent): 12600 ng·h/mL
- AUC [2, 3]: 124000 ng·h/mL

SMILES: OCC(O)CNc1nc(Oc2ccc(F)cc2F)nc2[nH]nc(-c3ccccc3Cl)c12 (centres unmarked) [3-[3-(2-Chloro-phenyl)-6-(2,4-difluoro-phenoxy)-1H-pyrazolo[3,4-d]pyrimidin-4-ylamino]-propane-1,2-diol]
- pIC50 (p38 MAP kinase): 8.40

SMILES: CC(C)(O)CNc1nc(Oc2ccc(F)cc2F)nc2c1c(-c1ccccc1Cl)nn2COC(=O)CCC(=O)O [Succinic acid mono-[3-(2-chloro-phenyl)-6-(2,4-difluoro-phenoxy)-4-(2-hydroxy-2-methyl-propylamino)-pyrazolo[3,4-d]pyrimidin-1-ylmethyl]ester]
- Cmax ([1]; 3 mg/kg in parent equivalent): 1830 ng/mL
- Cmax ([1]; 10 mg/kg in parent equivalent): 9250 ng/mL
- AUC ([1]; 3 mg/kg in parent equivalent): 6110 ng·h/mL
- AUC ([1]; 10 mg/kg in parent equivalent): 20900 ng·h/mL

SMILES: C[C@@H](CNc1nc(Oc2ccc(F)cc2F)nc2[nH]nc(-c3ccccc3Cl)c12)OP(=O)(O)O [phosphoric acid mono-{2-[3-(2-chloro-phenyl)-6-(2,4-difluoro-phenoxy)-1H-pyrazolo[3,4-d]pyrimidin-4-ylamino]-1-methyl-ethyl}ester]
- Cmax ([2]; 30 mg/kg in parent equivalent): 214 ng/mL
- AUC [2, 3]: 188 ng·h/mL
- concentration in rat plasma (not detected at quantification limit) ([2]; phosphate prodrug given orally, 3 mg/kg dose): < 0.5 ng/mL

— patent US7608603B2, “Substituted pyrazolo[3,4-D]pyrimidines as p38 MAP kinase inhibitors” (Roche Palo Alto LLC, priority 2005, dated 2009)
